Measurements reported in PubChem BioAssay (NCI).
Where “and” joins values, the source holds several entries; their conditions need not be identical. Equal values may be shown once.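 Step 1: Grow cells in 96-well plates. Step 2: Expose to compound for 48 hours at 5 concentrations. Step 3: Interpolate endpoints linearly; if unreached, use highest concentration. Abbreviation: GI50, concentration required for 50% inhibition of growth. The concentration for full growth arrest is given as TGI.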 Where a SMILES comes first, the peptide text is derived from it. Bridges are numbered along the chain shown (N, C = ends). [ ]: non-standard residue; d: D form. The star is where a group is joined. Phe(3,5-F2) = N[C@@H](Cc1cc(F)cc(F)c1)C(=O)O; Pro(4R-Me) = C[C@H]1CN[C@H](C(=O)O)C1; aThr = C[C@H](O)[C@H](N)C(=O)O; Pip = O=C(O)[C@@H]1CCCCN1; X7 = CCC/C=C/C=C/C(=O)*

Tested on: MDA-MB-468 breast
Assay: NCI anticancer screen, dose series, 48 h

| Compound | GI50 | TGI |
| --- | --- | --- |
| COc1cc2cc(Oc3ccc(NC(=O)Nc4ccc(F)c(C(F)(F)F)c4)cc3)c(C)nc2cc1OCCN1CCOCC1 | 0.451 µM | 10.4 µM |
| COC(=O)Nc1nc2ccc(C(=O)C3CC3)cc2[nH]1 | 0.247 µM | 1.48 µM |
| CCN1C2=C(SC(=S)C1=C1SC(C(=O)c3ccccc3)=C(C(=O)c3ccccc3)S1)SC(=Nc1ccccc1)C2=O | > 50.4 µM | > 100 µM |
| CC(C)c1ccc2c(c1)CCC1C(C)(CN)CCCC21C (stereo not drawn) | 1.43 µM | 2.76 µM |
| COc1ccc2c(c1)OC(N)=C(C#N)C2c1ccc(F)c(F)c1 (stereo not drawn) | 0.222 µM | 3.56 µM |
| Cc1cccc2c1NC(=O)[C@@H](NC(=O)[C@H](CCC(F)(F)F)[C@H](CCC(F)(F)F)C(N)=O)N=C2c1cccc(F)c1 | 18.5 µM | > 100 µM |
| Cc1ccc([I+]c2ccc(C)cc2)cc1 | 0.264 µM | 40 µM |
| Oc1c(CCl)cc(Cl)cc1Cc1cc(Cl)cc(Cc2cc(Cl)cc(CCl)c2O)c1O | 3.28 µM | 13.1 µM |
| COc1c(O)cc2c(c1CC=C(C)C)OC(=O)c1c(cc(O)c(CC=C(C)C)c1O)O2 | 4.19 µM | 8.21 µM |
| COc1ncnn2ccc(-c3cnc4nc(C)n(Cc5nnc(C(C)F)o5)c4c3)c12 (stereo not drawn) | 0.051 µM | 0.309 µM |
| CC[n+]1c(/C=C/c2ccc(N3CCCC3)cc2)cccc1/C=C/c1ccc(N2CCCC2)cc1 | 0.0423 µM | 0.196 µM |
| O=C(NC(=S)Nc1ccc(-c2nc3ccccc3[nH]2)cc1)c1ccc2ccccc2c1 | 2.34 µM | 7.72 µM |
| N#C/C(=C\c1ccc([N+](=O)[O-])cc1)n1nnc2cc(F)c(F)cc21 | 1.51 µM | 3.53 µM |
| COc1cccc(Nc2ncnn3ccc(CN4CC[C@@H](N)[C@H](O)C4)c23)c1 | 0.0333 µM and 0.0201 µM | 0.79 µM and 0.175 µM |
| Nc1n[nH]c2ccc([C@H]3[C@@H]4C5CCC(C5)[C@@H]4c4c(ccc5[nH]ncc45)N3S(=O)(=O)C3CC3)cc12 (stereo partly drawn) | 0.137 µM | 1.7 µM |
| O=C1/C(=C\c2ccc(Cl)cc2)CN(C(=O)c2ccccc2)C/C1=C\c1ccc(Cl)cc1 | 1.86 µM | 4.28 µM |
| CO[C@@H]1[C@H](N(C)C(=O)c2ccccc2)C[C@@H]2O[C@]1(C)n1c3ccccc3c3c4c(c5c6ccccc6n2c5c31)C(=O)NC4=O | 0.335 µM | > 100 µM |
| CC(=O)N[C@@H](Cc1ccc(OP(=O)(O)O)cc1)C(=O)N[C@H]1CCC(=O)N2CCC[C@@H](C(=O)NCc3cccc4ccccc34)N2C1=O | > 25 µM | > 25 µM |
| Nc1nc(N)c2cc(Sc3ccc(Cl)cc3)ccc2n1 | 1.15 µM | 2.71 µM |
| O=C(NCCNc1nccc(-c2c(-c3ccc(F)cc3)nc3sccn23)n1)Nc1cccc(C(F)(F)F)c1 | 2.14 µM | 7.46 µM |
| CCC/C=C/C=C/C(=O)N[C@@H](Cc1cc(F)cc(F)c1)C(=O)N[C@@H]1C(=O)N2CCC[C@H]2C(=O)N2CCCC[C@H]2C(=O)N[C@@H](C)C(=O)N2C[C@H](C)C[C@H]2C(=O)O[C@H]1C (X7-[Phe(3,5-F2)][aThr]P[Pip]A[Pro(4R-Me)]; ester 2-C) | 0.271 µM | 1.03 µM |
| O=C(/C=C/c1cccnc1)c1ccccc1 | 8.22 µM | 22 µM |
| COC(=O)CC12CC(NC(=O)c3csc([C@@H](C[C@H](C(C)C)N(C)C(=O)[C@@H](NC(=O)[C@H]4CCCCN4C)C(C)C)OC(C)=O)n3)(C1)C2 | 0.00438 µM | > 33.3 µM |
| COc1ccc(/C=C/C(=O)c2ccc(B(O)O)cc2)cc1O | 6.23 µM | 18.4 µM |
| CN1CCN(C(=O)OCc2nc3c(N4CCOCC4)nc(-c4ccccc4)nc3n2C)CC1 | 0.558 µM | 2.02 µM |
| O=C(CSc1nc2ccc([N+](=O)[O-])cc2[nH]1)Nc1ccc([N+](=O)[O-])cc1 | 1.08 µM | 5.05 µM |
| NCCSC1(O)C(=O)c2ccccc2-c2ccccc21 (stereo not drawn) | 0.615 µM | 2.12 µM |
| ClCCN(CCCl)c1ccc(OCc2ccccc2)cc1 | 1.45 µM | 16.7 µM |
| CC(C)[C@]12O[C@H]1[C@@H]1O[C@]13[C@]1(O[C@H]1C[C@H]1C4=C(CC[C@@]13C)C(=O)OC4)[C@@H]2OC(=O)OC(C)(C)C | 0.0147 µM | 0.0361 µM |
